Assay results: patent publication US12173020B2, “New-type oxazolidinone compounds and preparation method therefor” (priority 2019, dated 2024)

Assays:
[1] = system: vancomycin-resistant Enterococcus (VRE); assay: agar dilution method, inhibitory effect on VRE; format: cell-based; conditions: for MIC50: Enterococcus, read-out: Minimum inhibitory concentration (MIC50, μg/ml) VRE
Excerpt: (§1) In order to determine the antibacterial activity of these new oxazolidinone-based compounds, an agar dilution method was used to test the inhibitory effect on methicillin-resistant Staphylococcus aureus (MRSA) and vancomycin-resistant Enterococcus (VRE). The bacteria inhibition effect was expressed as minimum inhibitory concentration (MIC50, μg/ml) The test results are shown in the following table.

[2] = system: methicillin-resistant Staphylococcus aureus (MRSA); assay: agar dilution method, inhibitory effect on MRSA; format: cell-based; conditions: for MIC50: Staphylococcus aureus, read-out: Minimum inhibitory concentration (MIC50, μg/ml) MRSA
Excerpt: as §1

| SMILES | MIC50 [1] [µg/mL] | MIC50 [2] [µg/mL] | Minimum inhibitory concentration (MIC50, μg/ml) VRE [1] [µg/mL] | Minimum inhibitory concentration (MIC50, μg/ml) MRSA [2] [µg/mL] |
| --- | --- | --- | --- | --- |
| CCCn1nnc(-c2ccc(-c3ccc(N4C[C@@H](C(O)CF)OC4=O)cc3F)cn2)n1.O=P(O)(O)O (stereo partly drawn) [compound 142, (S)-3-(3-fluoro-4-(6-(2-propyl-2H-tetrazol-5-yl)pyridin-3-yl)phenyl)-5-(1-hydroxy-2-fluoroethyl) oxazolidin-2-one phosphate] | 0.2 | 0.2 |  |  |
| CCCn1nnc(-c2ccc(-c3ccc(N4C[C@H](C(O)C5CC5)OC4=O)cc3F)cn2)n1.O=P(O)(O)O (stereo partly drawn) [compound 143, (R)-3-(3-fluoro-4-(6-(2-propyl-2H-tetrazol-5-yl)pyridin-3-yl)phenyl)-5-(1-hydroxy-1-cyclopropylmethyl) oxazolidin-2-one phosphate] | 0.2 | 0.3 |  |  |
| CCCn1nnc(-c2ccc(-c3ccc(N4C[C@@H](C(O)C5CC5)OC4=O)cc3F)cn2)n1.O=P(O)(O)O (stereo partly drawn) [compound 144, (S)-3-(3-fluoro-4-(6-(2-propyl-2H-tetrazol-5-yl)pyridin-3-yl)phenyl)-5-(1-hydroxy-1-cyclopropylmethyl) oxazolidin-2-one phosphate] | 0.4 | 0.4 |  |  |
| O=C1O[C@@H](C(O)C(F)F)CN1c1ccc(-c2ccc(-c3nnn(C4CC4)n3)nc2)c(F)c1.O=P(O)(O)O (stereo partly drawn) [compound 145, (R)-3-(3-fluoro-4-(6-(2-cyclopropyl-2H-tetrazol-5-yl)pyridin-3-yl)phenyl)-5-(1-hydroxy-2-difluoroethyl) oxazolidin-2-one phosphate] |  |  | 0.5 | 0.6 |
| O=C1O[C@H](C(O)C2CC2)CN1c1ccc(-c2ccc(-c3nnn(C4CC4)n3)nc2)c(F)c1.O=P(O)(O)O (stereo partly drawn) [compound 150, (S)-3-(3-fluoro-4-(6-(2-cyclopropyl-2H-tetrazol-5-yl)pyridin-3-yl)phenyl)-5-(1-hydroxy-1-cyclopropylmethyl) oxazolidin-2-one phosphate] | 0.2 | 0.2 |  |  |
| C=Cn1nnc(-c2ccc(-c3ccc(N4C[C@H](C(OP(=O)(O)O)C(F)F)OC4=O)cc3F)cn2)n1 (stereo partly drawn) [compound 151, (R)-3-(3-fluoro-4-(6-(2-vinyl-2H-tetrazol-5-yl)pyridin-3-yl)phenyl)-5-(1-hydroxy-2-difluoroethyl) oxazolidin-2-one phosphate] |  |  | 0.6 | 0.8 |

Now from value to molecule:

| MIC50 [1] [µg/mL] | MIC50 [2] [µg/mL] | Minimum inhibitory concentration (MIC50, μg/ml) VRE [1] [µg/mL] | Minimum inhibitory concentration (MIC50, μg/ml) MRSA [2] [µg/mL] | SMILES |
| --- | --- | --- | --- | --- |
|  |  | 0.2 | 0.3 | C=Cn1nnc(-c2ccc(-c3ccc(N4C[C@@H](C(O)C(F)F)OC4=O)cc3F)cn2)n1.O=P(O)(O)O (stereo partly drawn) [compound 152, (S)-3-(3-fluoro-4-(6-(2-vinyl-2H-tetrazol-5-yl)pyridin-3-yl)phenyl)-5-(1-hydroxy-2-difluoroethyl) oxazolidin-2-one phosphate] |
| 0.1 | 0.2 |  |  | C=Cn1nnc(-c2ccc(-c3ccc(N4C[C@H](C(O)CF)OC4=O)cc3F)cn2)n1.O=P(O)(O)O (stereo partly drawn) [compound 153, (R)-3-(3-fluoro-4-(6-(2-vinyl-2H-tetrazol-5-yl)pyridin-3-yl)phenyl)-5-(1-hydroxy-2-fluoroethyl) oxazolidin-2-one phosphate] |
| 0.3 | 0.4 |  |  | C=Cn1nnc(-c2ccc(-c3ccc(N4C[C@@H](C(O)CF)OC4=O)cc3F)cn2)n1.O=P(O)(O)O (stereo partly drawn) [compound 154, (S)-3-(3-fluoro-4-(6-(2-vinyl-2H-tetrazol-5-yl)pyridin-3-yl)phenyl)-5-(1-hydroxy-2-fluoroethyl) oxazolidin-2-one phosphate] |
| 0.5 | 0.9 |  |  | C=Cn1nnc(-c2ccc(-c3ccc(N4C[C@H](C(O)C5CC5)OC4=O)cc3F)cn2)n1.O=P(O)(O)O (stereo partly drawn) [compound 155, (R)-3-(3-fluoro-4-(6-(2-vinyl-2H-tetrazol-5-yl)pyridin-3-yl)phenyl)-5-(1-hydroxy-1-cyclopropylmethyl) oxazolidin-2-one phosphate] |
| 0.4 | 0.4 |  |  | C=Cn1nnc(-c2ccc(-c3ccc(N4C[C@@H](C(O)C5CC5)OC4=O)cc3F)cn2)n1.O=P(O)(O)O (stereo partly drawn) [compound 156, (S)-3-(3-fluoro-4-(6-(2-vinyl-2H-tetrazol-5-yl)pyridin-3-yl)phenyl)-5-(1-hydroxy-1-cyclopropylmethyl) oxazolidin-2-one phosphate] |
